According to US8129396B2, “2-[1H-benzimidazol-2(3H)-ylidene]-2-(pyrimidin-2-yl)acetamides and 2-[benzothiazol-2(3H)-ylidene]-2-(pyrimidin-2-yl)acetamides as kinase inhibitors” (Telik, Inc., priority 2008, dated 2012):

Experiments:
p-H3 in HCT116 cells = assay: Histone phosphorylation (p-H3) assay; type: cell-based; conditions: Homo sapiens, HCT-116; HCT116 cells, 4 hr incubation; read-out: p-H3 IC50
How it was run: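 HCT116 cells (2.5×10^4/well, attached overnight) treated 4 h with 8-point 3-fold compound dilutions at 0.5% DMSO. Lysates dot-blotted onto nitrocellulose and probed for p-H3 with β-actin on the same membrane, fluorescent secondary antibodies, Odyssey scan; duplicate wells.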

Aurora A kinase = biological target: T1, Aurora A kinase (Homo sapiens, UniProt O14965); assay: Aurora A kinase assay (IMAP fluorescence polarization); type: biochemical; conditions: 10 μM ATP; rounded to 1 significant figure; read-out: Aur-A IC50
T1 construct: purchased Upstate Biotech
T1 sequence (O14965 1-403): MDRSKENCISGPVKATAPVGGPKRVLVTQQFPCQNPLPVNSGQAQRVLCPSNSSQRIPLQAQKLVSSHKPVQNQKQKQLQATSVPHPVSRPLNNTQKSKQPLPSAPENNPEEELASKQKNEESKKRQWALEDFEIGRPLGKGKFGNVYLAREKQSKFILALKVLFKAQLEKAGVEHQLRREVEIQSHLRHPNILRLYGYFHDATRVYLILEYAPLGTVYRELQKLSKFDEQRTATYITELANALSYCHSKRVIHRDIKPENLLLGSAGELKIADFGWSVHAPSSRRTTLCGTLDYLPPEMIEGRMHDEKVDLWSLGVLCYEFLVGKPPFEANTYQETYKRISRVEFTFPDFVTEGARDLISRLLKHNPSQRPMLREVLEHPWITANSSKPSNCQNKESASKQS
How it was run: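 Compounds (eight 3-fold dilutions, 2.5% DMSO final) were preincubated 5 min at room temperature with Aurora A kinase in buffer with 1 mM DTT. Reaction with 100 nM fluorescein-PKAtide and 10 μM ATP ran 45 min at room temperature, then was stopped with IMAP binding reagent; fluorescence polarization was read after 30 min.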

[1] = tested on: HCT116 (human colon carcinoma) xenograft; assay: HCT116 xenograft assay, oral administration; type: in vivo, athymic nu/nu mice; conditions: for inhibition of tumor growth compared to vehicle: 150 mg/Kg by gavage once/day on days 1-5 and 8-12, measured 9 days after last treatment
Description: Male athymic nu/nu mice, 6-8 weeks old (about 20 g), were implanted subcutaneously in the right fore flank with about 1×10^7 cells of the HCT116 (human colon carcinoma) line that had been grown in antibiotic-free medium for at least two passages. About 14-21 days after tumor transplantation, when the tumor weight was about 50-250 mg, the mice were assigned to treatment groups. […] Groups of mice were treated with compounds 39A, 40A, 60A, 75A, 95A, and 117A at 150 mg/Kg by gavage once/day on days 1-5 and 8-12 from the start of treatment, with vehicle control. Tumor growth inhibition was measured 9 days after the last day of treatment.

VEGFR2 kinase = biological target: T2, VEGFR2 kinase (Homo sapiens, UniProt P35968); assay: VEGFR2 kinase assay; type: biochemical; conditions: 6 μM ATP, 1 mM MnCl2; rounded to 1 significant figure
T2 construct: purchased Cell Signaling Technology
T2 sequence (P35968 20-1356): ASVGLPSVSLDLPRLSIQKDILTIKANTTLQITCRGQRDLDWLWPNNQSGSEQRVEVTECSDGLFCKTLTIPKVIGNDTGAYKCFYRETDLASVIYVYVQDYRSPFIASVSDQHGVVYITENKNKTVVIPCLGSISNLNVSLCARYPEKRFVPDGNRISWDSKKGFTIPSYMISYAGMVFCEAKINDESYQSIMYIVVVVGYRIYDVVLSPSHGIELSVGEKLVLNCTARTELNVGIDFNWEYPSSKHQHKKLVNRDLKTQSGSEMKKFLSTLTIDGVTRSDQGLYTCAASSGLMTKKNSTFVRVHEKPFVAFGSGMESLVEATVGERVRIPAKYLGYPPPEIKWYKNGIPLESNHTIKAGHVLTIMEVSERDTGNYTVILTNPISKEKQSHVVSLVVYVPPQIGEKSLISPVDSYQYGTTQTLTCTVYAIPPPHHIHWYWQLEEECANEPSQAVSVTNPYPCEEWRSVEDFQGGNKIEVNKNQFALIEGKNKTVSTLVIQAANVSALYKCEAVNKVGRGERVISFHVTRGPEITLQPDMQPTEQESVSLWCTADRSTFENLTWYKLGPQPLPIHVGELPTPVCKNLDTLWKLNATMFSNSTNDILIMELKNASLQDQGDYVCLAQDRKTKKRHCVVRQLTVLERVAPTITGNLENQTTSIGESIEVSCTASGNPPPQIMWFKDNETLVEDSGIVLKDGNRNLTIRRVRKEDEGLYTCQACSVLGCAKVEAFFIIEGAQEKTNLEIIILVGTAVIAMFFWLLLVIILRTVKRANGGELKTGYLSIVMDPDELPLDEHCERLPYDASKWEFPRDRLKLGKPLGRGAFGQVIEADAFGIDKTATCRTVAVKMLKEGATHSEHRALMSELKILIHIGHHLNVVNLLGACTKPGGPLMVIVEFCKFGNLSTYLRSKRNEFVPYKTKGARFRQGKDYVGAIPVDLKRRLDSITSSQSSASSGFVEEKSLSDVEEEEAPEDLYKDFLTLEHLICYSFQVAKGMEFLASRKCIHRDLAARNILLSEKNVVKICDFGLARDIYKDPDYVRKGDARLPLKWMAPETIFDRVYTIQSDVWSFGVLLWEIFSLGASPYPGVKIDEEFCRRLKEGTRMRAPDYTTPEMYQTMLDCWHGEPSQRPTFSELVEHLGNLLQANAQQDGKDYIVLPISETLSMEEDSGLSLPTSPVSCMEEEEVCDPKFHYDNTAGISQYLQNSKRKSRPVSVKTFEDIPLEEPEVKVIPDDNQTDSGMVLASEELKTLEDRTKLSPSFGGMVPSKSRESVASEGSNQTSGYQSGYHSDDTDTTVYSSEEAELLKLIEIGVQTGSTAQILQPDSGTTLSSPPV
How it was run: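 VEGFR2 phosphorylates CSKtide with 6 μM ATP and 1 mM MnCl2 for 1 hr, otherwise following the Aurora A kinase protocol. Detection by IMAP fluorescence polarization, binding reagent diluted 1:1200 in 1:1 binding buffer A/B. Run in duplicate with solvent control.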

[2] = tested on: HL60 (human promyelocytic leukemia) xenograft; assay: HL60 xenograft assay, oral administration; type: in vivo, athymic nu/nu mice; conditions: for inhibition of tumor growth compared to vehicle: 150 mg/Kg by gavage once/day on days 1-5 and 8-10, measured 1-2 days after last treatment
Description: Male athymic nu/nu mice, 6-8 weeks old (about 20 g), were implanted subcutaneously in the right fore flank with about 1×10^7 cells of the HL60 (human promyelocytic leukemia) line that had been grown in antibiotic-free medium for at least two passages. About 6 days after tumor implantation, when the tumor weight was about 50-250 mg, the mice were assigned to treatment groups. […] […] Tumor growth inhibition was measured 1-2 days after the last day of treatment.

Aurora B kinase = biological target: T3, Aurora B kinase (Homo sapiens, UniProt Q96GD4); assay: Aurora B kinase assay (IMAP fluorescence polarization); type: biochemical; conditions: 10 μM ATP; rounded to 1 significant figure; read-out: Aur-B IC50
T3 construct: purchased BPS Bioscience
T3 sequence (Q96GD4 whole entry): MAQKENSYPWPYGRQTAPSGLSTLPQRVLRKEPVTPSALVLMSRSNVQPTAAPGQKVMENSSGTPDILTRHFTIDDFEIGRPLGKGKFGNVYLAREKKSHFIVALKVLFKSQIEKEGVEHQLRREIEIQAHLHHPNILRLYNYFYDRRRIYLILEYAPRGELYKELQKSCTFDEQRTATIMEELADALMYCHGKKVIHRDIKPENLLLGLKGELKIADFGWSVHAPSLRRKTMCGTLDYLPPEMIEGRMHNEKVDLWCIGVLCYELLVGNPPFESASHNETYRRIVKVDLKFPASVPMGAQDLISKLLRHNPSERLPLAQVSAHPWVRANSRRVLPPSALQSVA
How it was run: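 Reaction started with 100 nM fluorescein-labelled PKAtide and 10 μM ATP, run 45 min at room temperature, then stopped with IMAP binding reagent (1:400). After 30 min shaking at room temperature, fluorescence polarization read; run in duplicate with solvent control.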

[3] = tested on: HUVEC-2 (human umbilical vein endothelial cells); assay: HUVEC VEGF-dependent proliferation assay (BrdU); type: cell-based; conditions: VEGF (25 ng/mL)-dependent proliferation, read-out: HUVEC IC50
How it was run: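 HUVEC-2 cells on gelatin got serially diluted compound (0.5% DMSO final), and VEGF (25 ng/mL) was added 2 hr later. BrdU (10 μM) went in after one day, with labelling for another day. VEGF-dependent proliferation was read by BrdU detection, in triplicate.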

[4] = tested on: HL60 (human promyelocytic leukemia) cells; assay: HL60 cytotoxicity assay (CellTiter-Glo); type: cell-based; conditions: HL-60, 72 h, cytotoxicity, three days culture, read-out: HL60 IC50
[5] = tested on: HCT116 (human colon carcinoma) cells; assay: HCT116 cytotoxicity assay (CellTiter-Glo); type: cell-based; conditions: HCT-116, 72 h, cytotoxicity, three days culture, read-out: HCT116 IC50
Aurora kinase C = biological target: T4, Aurora kinase C (Homo sapiens, UniProt Q9UQB9); conditions: reported; cited from earlier work
T4 sequence (Q9UQB9 1-309): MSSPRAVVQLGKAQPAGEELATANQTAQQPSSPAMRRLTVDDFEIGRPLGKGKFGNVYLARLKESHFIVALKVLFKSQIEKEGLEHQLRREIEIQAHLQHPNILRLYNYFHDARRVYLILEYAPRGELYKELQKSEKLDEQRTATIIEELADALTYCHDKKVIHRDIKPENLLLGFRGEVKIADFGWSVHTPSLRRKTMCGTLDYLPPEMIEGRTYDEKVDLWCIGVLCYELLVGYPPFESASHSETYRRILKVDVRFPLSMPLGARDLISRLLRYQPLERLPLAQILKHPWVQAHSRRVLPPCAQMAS

[6] = dissolved at 10 mg/mL in 0.1M sodium acetate pH5

SMILES	IC50 (p-H3 in HCT116 cells) [nM]	IC50 (Aurora A kinase) [nM]	IC50 (VEGFR2 kinase) [nM]	IC50 (Aurora B kinase) [nM]	inhibition of tumor growth compared to vehicle [1] [%]	inhibition of tumor growth compared to vehicle [2] [%]	IC50 [3] [nM]	IC50 [4] [nM]	IC50 [5] [nM]	IC50 (Aurora kinase C) [nM]	tumor inhibition relative to vehicle ([1]; dissolved at 4 mg/mL in 0.1M sodium acetate pH5) [%]	tumor inhibition relative to vehicle ([2]; dissolved at 4 mg/mL in 0.1M sodium acetate pH5, dosing at 40 mg/mL) [%]	tumor inhibition relative to vehicle [2, 6] [%]
NC(=O)C(=C1Nc2ccc(C(=O)NCCCN3CCOCC3)cc2S1)c1nccc(C(F)(F)F)n1 (single isomer, unassigned) [Compound 40A, 2-(6-{[3-(4-morpholinyl)propyl]aminocarbonyl}-benzothiazol-2(3H)-ylidene)-2-(4-trifluoromethylpyrimidin-2-yl)acetamide]	500	3	3	7	18		30	7000	200				
NC(=O)C(=C1Nc2ccc(OCCn3ccnc3)cc2S1)c1nccc(C(F)(F)F)n1 (single isomer, unassigned) [Compound 117A, 2-{6-[2-(1H-imidazol-1-yl)ethoxy]benzothiazol-2(3H)-ylidene}-2-(4-trifluoromethylpyrimidin-2-yl)acetamide]	300	10	20	8	42		60		800				
Cc1nc(N)sc1-c1ccnc(Nc2ccc(N3CCOCC3)cc2)n1 [CYC116]										< 100			
NC(=O)/C(=C1\Nc2ccc(CCn3ccnc3)cc2S1)c1nccc(C(F)(F)F)n1 [Compound 95A]	50	20	20	4	61	59	50	2000	2000				
NC(=O)/C(=C1\Nc2ccc(CCN3CCOCC3)cc2S1)c1nccc(C(F)(F)F)n1 [Compound 101A]	1000	7	20	9		38	50	2000	1000				
CCN(CC)CC(=O)N(CC)c1ccc2c(c1)N/C(=C(/C(N)=O)c1nccc(C(F)(F)F)n1)N2 [Compound 139A]	90	20	30	2				40	30		46	65	

Now from value to compound, other results behind:

IC50 (p-H3 in HCT116 cells) [nM]	IC50 (Aurora A kinase) [nM]	IC50 (VEGFR2 kinase) [nM]	IC50 (Aurora B kinase) [nM]	SMILES	inhibition of tumor growth compared to vehicle [1] [%]	inhibition of tumor growth compared to vehicle [2] [%]	IC50 [3] [nM]	IC50 [4] [nM]	IC50 [5] [nM]	IC50 (Aurora kinase C) [nM]	tumor inhibition relative to vehicle ([1]; dissolved at 4 mg/mL in 0.1M sodium acetate pH5) [%]	tumor inhibition relative to vehicle ([2]; dissolved at 4 mg/mL in 0.1M sodium acetate pH5, dosing at 40 mg/mL) [%]	tumor inhibition relative to vehicle [2, 6] [%]
900	10	7	5	NC(=O)C(=C1Nc2ccc(C(=O)NCCCN3CCOCC3)cc2N1)c1nccc(C(F)(F)F)n1 (single isomer, unassigned) [Compound 39A, 2-(5-{[3-(4-morpholinyl)propyl]aminocarbonyl}-1H-benzimidazol-2(3H)-ylidene)-2-(4-trifluoromethylpyrimidin-2-yl)acetamide]	56	47	60	500	300				
200	10	5	7	NC(=O)/C(=C1\Nc2ccc(C(=O)N3CCNCC3)cc2N1)c1nccc(C(F)(F)F)n1 [Compound 60A]	37		80		200				
400	60	50	10	CCN(CC)CC(=O)Nc1ccc2c(c1)N/C(=C(/C(N)=O)c1nccc(C(F)(F)F)n1)N2 [Compound 75A]	60	72	200		1000				
300	4	40	6	CCN(C(=O)C1CCN(C)CC1)c1ccc2c(c1)N/C(=C(/C(N)=O)c1nccc(C(F)(F)F)n1)N2 [Compound 141A]			20	1000	900				49
300	2	10	4	CN1CCCC[C@H]1C(=O)Nc1ccc2c(c1)N/C(=C(/C(N)=O)c1nccc(C(F)(F)F)n1)N2 [Compound 142A]			90	200	300				89
200	4	30	6	CN1CCCC[C@@H]1C(=O)Nc1ccc2c(c1)N/C(=C(/C(N)=O)c1nccc(C(F)(F)F)n1)N2 [Compound 143A]			80	300	300				65
